The results in this text go back to patent US10842758B1, “Transdermal penetrant formulations containing cannabidiol” (AMPERSAND BIOPHARMACEUTICALS, INC., priority 2019, dated 2020).

This series can be described thus: Plasma pharmacokinetic profile of cannabidiol after a single topical dose (In-life Study 1901002-01, LC-MS/MS). The series is classed as in vivo, CD-1 mice. As to conditions: CD-1, topical or ocular, single topical dose 0.1 mL, mouse plasma. The procedure:
The objective of this study was to determine the plasma pharmacokinetic (PK) profile of test article cannabidiol (CBD) following the administration of a single topical dose to CD-1 mice. The work was conducted at Alliance Pharma with a title of In-life Study 1901002-01. Although the in-life study was not intended to be conducted in compliance with Good Laboratory Practice regulations, the study was conducted in accordance with Alliance Pharma's IACUC (Institutional Animal Care and Use Committee) Protocol No. 2016-02_V4 and Alliance Pharma's standard operating procedures (SOPs). In addition, the pharmacokinetic analyses of mouse plasma samples were conducted in accordance with Alliance Pharma SOPs.
A total of 72 mouse (CD-1) plasma samples were transferred from Alliance Pharma's in-life facility located in Malvern, Pa. to the Bioanalytical department for pharmacokinetic analysis. The concentration of CBD in these 72 plasma samples was measured using high-performance liquid chromatography (HPLC) with tandem mass spectrometry (MS/MS) detection.
Test Article: The dose gels for test article CBD were provided by Ampersand Biopharma dba Dyve Biosciences (Thousand Oakes, Calif.), prior to the start of this study and stored at room temperature.
In-life Study Design: In-life Study 1901002-01 was performed at the in-life testing facility at Alliance Pharma. Four (4) groups of 21 CD-1 mice each (84 total) were administered a single topical dose of CBD. Mice in Group 1 were administered Formulation A at a strength of 2.5% CBD. Mice in Group 2 were administered Formulation B at the same strength of 2.5% CBD. Mice in Group 3 were administered Formulation C at a strength of 5% CBD, and mice in Group 4 were administered Formulation C at a strength of 2.5% CBD. The treatment scheme is summarized below.
Animals in each group received topical administration of either 2.5% o 5% CBD using a 1 ml syringe to draw up exactly 100 μl. Compound was applied in the shaved area only. Each group received a different formulation of the compound.
Sample Collection, Processing, and Shipment: Blood samples were collected at the in-life facility at the following time points: 0.25, 0.5, 1, 2, 4, and 8 hours post-dose from 72 mice in Groups 1 through 4 (18 from each treatment group). Target volume was less than or equal to 0.2 ml. The blood was collected via trunk puncture into tubes using K2 EDTA as an anticoagulant. The collected blood samples were kept on wet ice before being centrifuged. Blood samples were centrifuged as soon as possible after blood collection at approximately 10,000 rpm for about 10 minutes to separate the plasma. Approximately 0.2 mL of each plasma sample was transferred into labeled Eppendorf tubes. Each tube was stored in a freezer set to −20° C. or lower. No blood was collected from 12 (3 from each treatment group) of the 84 mice enrolled in the in-life study; thus, the total number of plasma samples that were transferred to the Alliance Pharma Bioanalytical department for bioanalysis was 72.
Assay Procedures: For analysis of CBD, a 25-μL aliquot of each study sample was mixed with 25 μL of acetonitrile/water (50:50, v/v). Samples were then extracted by protein precipitation using acetonitrile containing the internal standard, tolbutamide (25 ng/mL). A portion of the supernatant was diluted in deionized water and used for the analysis of CBD.
Preparation of Standards and Quality Controls: Calibration standards of CBD mouse plasma samples were prepared in acetonitrile/water (50:50, v/v) at concentrations of 1, 2, 20, 200, 500, 1000, 1800, and 2000 ng/mL. The low quality control (LQC), medium quality control (MQC), and high quality control (HQC) were prepared in blank mouse plasma at concentrations of 3, 150, and 1500 ng/mL, respectively. A dilution quality control (DQC) was prepared at a concentration of 10,000 ng/mL and used in Batch 1.
Sample Analyses: Study samples were analyzed using a bioanalytical method qualified by Alliance Pharma. […]

Setting [1] is: Group 1: AEM.CBD.006 Formulation A 2.5% CBD, mean dose 78.69 mg/kg.
The mark [2] stands for this setting: Group 2: AEM.CBD.007 Formulation B 2.5% CBD, mean dose 76.61 mg/kg.
The mark [3] stands for this setting: Group 3: KBM.CBD.010 Formulation C 5% CBD, mean dose 155.24 mg/kg.
Setting [4] is: Group 4: KBM.CBD.011 Formulation C 2.5% CBD, mean dose 75.76 mg/kg.

The term AUC(0-inf) denotes the area under the concentration-time curve extrapolated to infinity. A lower AUC(0-inf) goes with low exposure. As a reminder, the AUC(0-t) is the area under the concentration-time curve up to a stated or last time point. In general, Cmax refers to the highest concentration seen after dosing. What is called Tmax is the time from dosing to the highest level. Usually half-life stands for the time in which the quantity being followed falls by half. For the molecule `C=C(C)[C@@H]1CCC(C)=C[C@H]1c1c(O)cc(CCCCC)cc1O` [Cannabidiol], under setting [1], the AUC(0-inf) stood at 1860 ng·h/mL, the AUC(0-t) came to 1760 ng·h/mL, the Cmax is 427 ng/mL and the Tmax worked out at 2 h. Further, the half-life under setting [1] was 1.78 h. Moreover, under setting [2], the total exposure AUC(0-inf) stood at 1650 ng·h/mL, the area under the curve AUC(0-t) is 1560 ng·h/mL, the Cmax was 360 ng/mL and the Tmax was determined as 2 h. Under setting [2], this molecule showed a half-life of 1.7 h. In addition, under setting [3], the AUC(0-inf) stood at 3530 ng·h/mL, the AUC(0-t) worked out at 3070 ng·h/mL, the maximum concentration (Cmax) came out at 602 ng/mL and the Tmax came to 4 h. Further, under setting [4], the AUC(0-inf) was determined as 1510 ng·h/mL, the AUC(0-t) worked out at 1410 ng·h/mL, the highest level (Cmax) was 332 ng/mL and the Tmax is 1 h. Under setting [4], this molecule had a half-life of 1.92 h.
